Compound | melting point
COc1cc2c(cc1O[Si](C(C)C)(C(C)C)C(C)C)CCN(Cc1cccc([N+](=O)[O-])c1)C2 | 57.3 to 58.6 °C
COc1cc2c(cc1OCc1ccccc1)CCN(Cc1cccc(O[Si](C(C)C)(C(C)C)C(C)C)c1)C2 | 78 to 79 °C
COc1cc2c(cc1OCc1ccccc1)CCN(Cc1ccc(C#N)cc1)C2 [29A, 6-Benzyloxy-2-(4-cyanobenzyl)-7-methoxy-1,2,3,4-tetrahydroisoquinoline] | 161 to 162 °C
COC(=O)c1cccc(CN2CCc3cc(O)c(OC)cc3C2)c1 [70A, 2-(3-(Methoxycarbonyl)benzyl)-6-hydroxy-7-methoxy-1,2,3,4-tetrahydroisoquinoline] | 156 to 158 °C
COC(=O)c1ccccc1S(=O)(=O)N1CCc2cc(O)c(OC)cc2C1 [186A, 7-Methoxy-2-(2-(methoxycarbonyl)benzenesulfonyl)-6-hydroxy-1,2,3,4-tetrahydroisoquinoline] | 134 to 138 °C
COc1cc2c(cc1O)CCN(S(=O)(=O)c1cccc(CC(=O)O)c1)C2=O [203A, 6-Hydroxy-7-methoxy-2-(3-carboxymethyl-benzenesulfonyl)-3,4-dihydro-2H-isoquinolin-1-one] | 236 to 239 °C
COc1cc(CC(=O)N2CCc3cc(O)ccc3C2)cc(OC)c1OC [B5, 2-(3,4,5-Trimethoxyphenylacetyl)-1,2,3,4-tetrahydroisoquinolin-6-ol] | 37 to 53 °C
CCOc1ccc(C(=O)N2CCc3cc(O)ccc3C2)cc1OCC [B6, 2-(3,4-Diethoxybenzoyl)-1,2,3,4-tetrahydroisoquinolin-6-ol] | 149 to 160 °C
COc1ccc(OC)c(C(=O)N2CCc3cc(O)ccc3C2)c1 [B7, 2-(2,5-Dimethoxybenzoyl)-1,2,3,4-tetrahydroisoquinolin-6-ol] | 61 to 86 °C
COc1ccc(C(=O)N2CCc3cc(O)ccc3C2)c(OC)c1 [B8, 2-(2,4-Dimethoxybenzoyl)-1,2,3,4-tetrahydroisoquinolin-6-ol] | 62 to 87 °C
COc1cccc(C(=O)N2CCc3cc(O)ccc3C2)c1OC [B9, 2-(2,3-Dimethoxybenzoyl)-1,2,3,4-tetrahydroisoquinolin-6-ol] | 167 to 172 °C
COc1ccc(C(=O)N2CCc3cc(O)ccc3C2)cc1OC [B10, 2-(3,4-Dimethoxybenzoyl)-1,2,3,4-tetrahydroisoquinolin-6-ol] | 58 to 77 °C
COc1cc(OC)c(C(=O)N2CCc3cc(O)ccc3C2)cc1OC [B11, 2-(2,4,5-Trimethoxybenzoyl)-1,2,3,4-tetrahydroisoquinolin-6-ol] | 180 to 188 °C
CCOc1cc(C(=O)N2CCc3cc(O)ccc3C2)cc(OCC)c1OCC [B14, 2-(3,4,5-Triethoxybenzoyl)-1,2,3,4-tetrahydroisoquinolin-6-ol] | 158 °C

Further lines, results first:

melting point | Compound
63 to 87 °C | Oc1ccc2c(c1)CCN(Cc1ccc3c(c1)OCO3)C2 [B2, 2-Piperonyl-1,2,3,4-tetrahydroisoquinolin-6-ol]
150 to 151 °C | CCOc1cccc(C(=O)N2CCc3cc(O)ccc3C2)c1 [B4, 2-(3-Ethoxybenzoyl)-1,2,3,4-tetrahydroisoquinolin-6-ol]
148 to 155 °C | COc1ccccc1CN1CCc2cc(O)ccc2C1 [B16, 2-(2-Methoxybenzyl)-1,2,3,4-tetrahydroisoquinolin-6-ol]
158 to 160 °C | COc1ccc(CN2CCc3cc(O)ccc3C2)cc1 [B17, 2-(4-methoxybenzyl)-1,2,3,4-tetrahydroisoquinolin-6-ol]
120 to 121 °C | CCOc1cccc(CN2CCc3cc(O)ccc3C2)c1 [B18, 2-(3-Ethoxybenzyl)-1,2,3,4-tetrahydroisoquinolin-6-ol]
178 to 192 °C | COc1ccc(OC)c(CN2CCc3cc(O)ccc3C2)c1 [B19, 2-(2,5-Dimethoxybenzyl)-1,2,3,4-tetrahydroisoquinolin-6-ol]
189 to 195 °C | COc1cc(CN2CCc3cc(O)ccc3C2)cc(OC)c1 [B20, 2-(3,5-Dimethoxybenzyl)-1,2,3,4-tetrahydroisoquinolin-6-ol]

— patent publication US8394825B2, “Compound” (Sterix Limited, priority 2007, dated 2013)
